ChEMBL document CHEMBL1201862, “PubChem BioAssay data set” (2004)
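Compound exposure: 48 hours, 5 concentrations, 96-well plates. Abbreviation: GI50, concentration required for 50% inhibition of growth.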 Active and inactive are the calls of the source. Cut-off read from the data, not from the text of the source: active = GI50 up to about 1.1 µM and inactive = higher.

Key:
Assay in all cases: inhibition of tumour cell growth, NCI panel, 48 h
[1] = tested on: A498
[2] = tested on: CCRF-CEM
[3] = tested on: EKVX
[4] = tested on: HCC 2998
[5] = tested on: HOP-92
[6] = tested on: HT-29
[7] = tested on: LOX IMVI
[8] = tested on: MOLT-4
[9] = tested on: Malme-3M
[10] = tested on: OVCAR-8
[11] = tested on: RXF 393
[12] = tested on: SF-539
[13] = tested on: TK-10
[14] = tested on: UACC-257
[15] = tested on: UO-31
[16] = tested on: HCT-15
[17] = tested on: SNB-75

Row | SMILES | GI50 [1] | GI50 [2] | GI50 [3] | GI50 [4] | GI50 [5] | GI50 [6] | GI50 [7] | GI50 [8] | GI50 [9] | GI50 [10] | GI50 [11] | GI50 [12] | GI50 [13] | GI50 [14] | GI50 [15] | GI50 [16] | GI50 [17]
1 | Cc1ncc(CCl)c2c1OC(C)(C)OC2 | > 100 µM (inactive) | 47.8 µM (inactive) | 20.5 µM (inactive) | > 100 µM (inactive) | 32.2 µM (inactive) | 52.2 µM (inactive) | 17.3 µM (inactive) | 42.5 µM (inactive) | 19.2 µM (inactive) | 67.1 µM (inactive) | 16 µM (inactive) | 33.6 µM (inactive) | > 100 µM (inactive) | 77.1 µM (inactive) | > 100 µM (inactive) | – | –
2 | N=C(N)NCCCC(NCc1c2ccccc2[n+]([O-])c2ccccc12)C(=O)O (centres undefined) | 98.4 µM (inactive) | 24.5 µM (inactive) | > 100 µM (inactive) | 74.5 µM (inactive) | – | 37.3 µM (inactive) | 34.5 µM (inactive) | 27.1 µM (inactive) | > 100 µM (inactive) | 52.5 µM (inactive) | – | – | > 100 µM (inactive) | > 100 µM (inactive) | 23.6 µM (inactive) | 32.9 µM | 28.2 µM (inactive)
3 | CC(C)=CCC/C(C)=C/Cc1c(O)ccc2c1[nH]c1cc(O)c(C)cc12 | – | 7.55 µM (inactive) | – | 11 µM (inactive) | > 25 µM (inactive) | > 25 µM (inactive) | 8.36 µM (inactive) | 6.07 µM (inactive) | 13.6 µM (inactive) | 9.46 µM (inactive) | 14 µM (inactive) | 6.95 µM (inactive) | > 25 µM (inactive) | – | 7.73 µM (inactive) | 9.71 µM | –
4 | CC/C=C/c1cc2c(c3[nH]ccc13)[C@@H](C)CC2C.CC/C=C/c1cc2cc[nH]c2c2c1C(C)C[C@@H]2C.CCc1cc2c(c3[nH]ccc13)[C@@H](C)CC2C (some centres undefined) | – | – | 18.4 µM (inactive) | 3.08 µM (inactive) | – | 14.4 µM (inactive) | 15.6 µM (inactive) | – | 20.2 µM (inactive) | 17.2 µM (inactive) | 12.2 µM (inactive) | 16.1 µM (inactive) | 22.1 µM (inactive) | 16 µM (inactive) | 16.6 µM (inactive) | – | 10 µM (inactive)
5 | CC(=O)OCc1ncccc1C(OC(C)=O)OC(C)=O | > 100 µM (inactive) | > 100 µM (inactive) | > 100 µM (inactive) | – | > 100 µM (inactive) | > 100 µM (inactive) | > 100 µM (inactive) | > 100 µM (inactive) | > 100 µM (inactive) | > 100 µM (inactive) | > 100 µM (inactive) | > 100 µM (inactive) | > 100 µM (inactive) | > 100 µM (inactive) | > 100 µM (inactive) | > 100 µM | > 100 µM (inactive)
6 | Cc1nc(-c2ccccc2)cc2c1c(=O)oc1ccccc12 | – | > 100 µM (inactive) | > 100 µM (inactive) | > 100 µM (inactive) | > 100 µM (inactive) | > 100 µM (inactive) | – | > 100 µM (inactive) | > 100 µM (inactive) | > 100 µM (inactive) | > 100 µM (inactive) | > 100 µM (inactive) | – | > 100 µM (inactive) | > 100 µM (inactive) | > 100 µM | 83.4 µM (inactive)
7 | CCN(CC)CCCC(C)Nc1c2cc(OC)cc(C)c2nc2c(C)c(Cl)ccc12 (centres undefined) | 2.43 µM (inactive) | 1.47 µM (inactive) | 1.85 µM (inactive) | 1.63 µM (inactive) | 1.22 µM (inactive) | 1.62 µM (inactive) | 2.02 µM (inactive) | 1.74 µM (inactive) | 1.85 µM (inactive) | 1.78 µM (inactive) | 2.09 µM (inactive) | – | 1.73 µM (inactive) | 1.81 µM (inactive) | 1.71 µM (inactive) | 1.78 µM | 1.68 µM (inactive)
8 | COc1ccc2cc3n(c(=O)c2c1)CCc1c-3cc(OC)c(OC)c1OC | – | > 100 µM (inactive) | > 100 µM (inactive) | > 100 µM (inactive) | > 100 µM (inactive) | > 100 µM (inactive) | – | > 100 µM (inactive) | > 100 µM (inactive) | > 100 µM (inactive) | – | 60 µM (inactive) | > 100 µM (inactive) | > 100 µM (inactive) | > 100 µM (inactive) | > 100 µM | 34.7 µM (inactive)
